Results: US9174980B2, “Heterocyclic compounds as inhibitors of leukotriene production” (Boehringer Ingelheim International GmbH, priority 2012, dated 2015)

What was measured:
[1] = tested on: synthesis of LTB4 in human whole blood; test: Human whole blood assay (calcimycin-stimulated LTB4 synthesis); assay type: cell-based; details: Homo sapiens; read-out: Human Whole Blood LTB4 Assay for FLAP (IC50 nM)
Summary of the method: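 Steps: compound plus heparinized human whole blood, 15 min at 37° C; add calcimycin to 20 μM final; incubate another 30 min at 37° C; centrifuge at low speed and collect plasma; measure LTB4 with a homogeneous time-resolved fluorescence immunoassay.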

[2] = target: T1, recombinant human FLAP protein (Homo sapiens, UniProt P20292); test: FLAP binding assay (Scintillation Proximity Assay, displacement of [125I]L-691,831); details: read-out: Human FLAP SPA Binding (IC50 nM)
T1 construct: made in house; host or cells: Sf9 insect cells (membrane fraction, 100,000 x g pellet)
T1 sequence (P20292 1-161): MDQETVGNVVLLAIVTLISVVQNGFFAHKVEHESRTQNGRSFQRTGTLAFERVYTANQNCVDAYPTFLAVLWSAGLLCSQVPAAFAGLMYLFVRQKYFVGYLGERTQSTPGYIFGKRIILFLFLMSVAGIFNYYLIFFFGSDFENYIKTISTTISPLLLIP
Summary of the method: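 Scintillation proximity displacement format: 0.08 nM iodinated MK-591 analog [125I]L-691,831 competes with test compound for human FLAP in sf9 insect-cell membranes (5 μg/well, WGA beads), 2 h with shaking, pH 7.5 Tris buffer. 10 μM cold L-691,831 defines non-specific binding.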

SMILES | IC50 [1] [nM] | IC50 [2] [nM]
Nc1ncc(-c2ccc(C3(c4c[nH]c5c(C(=O)N6CCS(=O)(=O)CC6)cccc45)CCC3)cc2)cn1 [Example 114] | 380 | 2.3
CC(C)C(C)(c1ccc(-c2cnc(N)nc2)cc1)c1c[nH]c2ccccc12 (stereo not shown) [Example 42, 5-{4-[2-(1H-indol-3-yl)-3-methylbutan-2-yl]phenyl}pyrimidin-2-amine] | 170 | 2.5
CC(C)C(C)(c1ccc(-c2cnc(N)nc2)cc1)c1c[nH]c2c(C(=O)N(C)CCO)cccc12 (stereo not shown) [Example 99, 3-[1-[4-(2-aminopyrimidin-5-yl)phenyl]-1,2-dimethyl-propyl]-N-(2-hydroxyethyl)-N-methyl-1H-indole-7-carboxamide] | 1600 | 0.93
CC(C)C(C)(c1ccc(OCc2ccccn2)cc1)c1cn(C)c2cc(C(N)=O)ccc12 (stereo not shown) [Example 38, 3-[1,2-dimethyl-1-[4-(2-pyridylmethoxy)phenyl]propyl]-1-methyl-indole-6-carboxamide] | 240 | 1.4
CC(C)C(C)(c1ccc(-c2cnc(N)nc2)cc1)c1cn(Cc2ccccn2)c2c(F)cccc12 (stereo not shown) [Example 41, 5-(4-{2-[7-fluoro-1-(pyridin-2-ylmethyl)-1H-indol-3-yl]-3-methylbutan-2-yl}phenyl)pyrimidin-2-amine] | 1300 | 3.4
CC(C)C(C)(c1ccc(-c2cnc(N)nc2)cc1)c1c[nH]c2cc(-c3nnn[nH]3)ccc12 (stereo not shown) [Example 68, 5-(4-[3-methyl-2-[6-(1H-tetrazol-5-yl)-1H-indol-3-yl]butan-2-yl}phenyl)pyrimidin-2-amine] | > 5000 | 1
CC(C)C(C)(c1ccc(-c2cnc(N)nc2)cc1)c1c[nH]c2cc(S(C)(=O)=O)ccc12 (stereo not shown) [Example 85, 5-(4-{3-methyl-2-[6-(methylsulfonyl)-1H-indol-3-yl]butan-2-yl}phenyl)pyrimidin-2-amine] | 300 | 0.97
CC(C)C(C)(c1ccc(-c2cnc(N)nc2)cc1)c1cn(Cc2nnn[nH]2)c2ccccc12 (stereo not shown) [Example 73, 5-(4-{3-methyl-2-[1-(1H-tetrazol-5-ylmethyl)-1H-indol-3-yl]butan-2-yl}phenyl)pyrimidin-2-amine] | > 5000 | 1.3
CC(C)C(C)(c1ccc(OCc2ccccn2)cc1)c1c[nH]c2cc(C(=O)O)ccc12 (stereo not shown) [Example 64, 3-[1,2-dimethyl-1-[4-(2-pyridylmethoxy)phenyl]propyl]-1H-indole-6-carboxylic acid] | 1400 | 0.85
COCC(C)(c1ccc(-c2cnc(N)nc2)cc1)c1cn(CC(=O)O)c2ncccc12 (stereo not shown) [Example 55, (3-{2-[4-(2-aminopyrimidin-5-yl)phenyl]-1-methoxypropan-2-yl}-1H-pyrrolo[2,3-b]pyridin-1-yl)acetic acid] | > 5000 | 1100
CS(=O)(=O)c1ccc2c(C3(c4ccc(-c5cnc(N)nc5)cc4)CCC3)c[nH]c2c1 [Example 90, 5-(4-{1-[6-(methylsulfonyl)-1H-indol-3-yl]cyclobutyl}phenyl)pyrimidin-2-amine] | 170 | 0.75
COC(=O)c1ccc2c(C(C)(c3ccc(-c4cnc(N)nc4)cc3)C(C)C)c[nH]c2c1 (stereo not shown) [Example 70, methyl 3-{2-[4-(2-aminopyrimidin-5-yl)phenyl]-3-methylbutan-2-yl}-1H-indole-6-carboxylate] | 240 | 0.9
CC(C)C(C)(c1ccc(-c2cnc(N)nc2)cc1)c1cn(Cc2ccccn2)c2cccc(F)c12 (stereo not shown) [Example 40, 5-(4-{2-[4-fluoro-1-(pyridin-2-ylmethyl)-1H-indol-3-yl]-3-methylbutan-2-yl}phenyl)pyrimidin-2-amine] | 540 | 2.6
CC(C)C(C)(c1ccc(-c2cnc(N)nc2)cc1)c1c[nH]c2c(C(=O)O)cccc12 (stereo not shown) [Example 84, 3-[1-[4-(2-aminopyrimidin-5-yl)phenyl]-1,2-dimethyl-propyl]-1H-indole-7-carboxylic acid] | 3000 | 0.7
Nc1ncc(-c2ccc(C3(c4nc5ccccc5s4)CCC3)cc2)cn1 [Example 128, 5-{4-[1-(1,3-benzothiazol-2-yl)cyclobutyl]phenyl}pyrimidin-2-amine] | 2300 | 8.1
CC(C)C(C)(c1ccc(-c2cnc(N)nc2)cc1)c1c[nH]c2cc(C(=O)N3CC(O)C3)ccc12 (stereo not shown) [Example 78, (3-{2-[4-(2-aminopyrimidin-5-yl)phenyl]-3-methylbutan-2-yl}-1H-indol-6-yl)(3-hydroxyazetidin-1-yl)methanone] | > 5000 | 1.6
COC(=O)c1[nH]c2ccccc2c1C1(c2ccc(-c3cnc(N)nc3)cc2)CCC1 [Example 165, methyl 3-{1-[4-(2-aminopyrimidin-5-yl)phenyl]cyclobutyl}-1H-indole-2-carboxylate] | 160 | 6.1
COC(=O)c1cc(Br)c(C2(c3ccc(-c4cnc(N)nc4)cc3)CCC2)n1C [Example 177, methyl 5-{1-[4-(2-aminopyrimidin-5-yl)phenyl]cyclobutyl}-4-bromo-1-methyl-1H-pyrrole-2-carboxylate] | 1800 | 42
Nc1ncc(-c2ccc(C3(c4nc5ccccc5o4)CCC3)cc2)cn1 [Example 127, 5-{4-[1-(1,3-benzoxazol-2-yl)cyclobutyl]phenyl}pyrimidin-2-amine] | 1900 | 7.2

Second part, the compound after the results:

IC50 [1] [nM] | IC50 [2] [nM] | SMILES
530 | 180 | CC(C)(O)Cn1cc(-c2coc([C@@](C)(c3ccc(-c4cnc(N)nc4)nc3)C3CC3)n2)cn1 [Example 210, 1-[4-(2-{(R)-1-[6-(2-Amino-pyrimidin-5-yl)-pyridin-3-yl]-1-cyclopropyl-ethyl}-oxazol-4-yl)-pyrazol-1-yl]-2-methyl-propan-2-ol]
1300 | > 2000 | Cn1cc(-c2coc([C@](C)(c3ccc(-c4cnc(N)nc4)nc3)C3CC3)n2)cn1 [Example 208, 5-(5-{(S)-1-Cyclopropyl-1-[4-(1-methyl-1H-pyrazol-4-yl)-oxazol-2-yl]-ethyl}-pyridin-2-yl)-pyrimidin-2-ylamine]
200 | 9 | CN(C)C(=O)Cn1cc(-c2cc(C(C)(c3ccc(-c4cnc(N)nc4)cc3)C3CC3)no2)cn1 (stereo not shown) [Example 183, 2-[4-(3-{1-[4-(2-aminopyrimidin-5-yl)phenyl]-1-cyclopropylethyl}-1,2-oxazol-5-yl)-1H-pyrazol-1-yl]-N,N-dimethylacetamide]
4100 | 14 | CC(C)C(C)(c1ccc(-c2cnc(N)nc2)cc1)c1nnc(-c2ccccc2)o1 (stereo not shown) [Example 97, 5-{4-[3-methyl-2-(5-phenyl-1,3,4-oxadiazol-2-yl)butan-2-yl]phenyl}pyrimidin-2-amine]
1200 | 330 | CN(C)CCn1cc(-c2cc([C@](C)(c3ccc(-c4cnc(N)nc4)cc3)C3CC3)no2)cn1 [Example 30, 5-{4-[(1S)-1-cyclopropyl-1-(5-{1-[2-(dimethylamino)ethyl]-1H-pyrazol-4-yl}-1,2-oxazol-3-yl)ethyl]phenyl}pyrimidin-2-amine]
990 | 18 | Nc1ncc(-c2ccc(C3(c4nc5ccccc5o4)CCC3)cn2)cn1 [Example 138, 5-{5-[1-(1,3-benzoxazol-2-yl)cyclobutyl]pyridin-2-yl}pyrimidin-2-amine]
280 | 18 | CN(C)C(=O)Cn1cc(-c2coc([C@@](C)(c3ccc(-c4cnc(N)nc4)cc3)C3CC3)n2)cn1 [Example 195, 2-[4-(2-{(1R)-1-[4-(2-aminopyrimidin-5-yl)phenyl]-1-cyclopropylethyl}-1,3-oxazol-4-yl)-1H-pyrazol-1-yl]-N,N-dimethylacetamide]
1400 | 8.4 | Cc1ccc(-c2cc(C(C)(c3ccc(-c4cnc(N)nc4)nc3)C(C)C)[nH]n2)cn1 (stereo not shown) [Example 160, 5-(5-{3-methyl-2-[5-(6-methylpyridin-3-yl)-1H-pyrazol-3-yl]butan-2-yl}pyridin-2-yl)pyrimidin-2-amine]
590 | 230 | Cn1cc(-c2cc(C(C)(c3ccc(-c4cnc(N)nc4)nc3)C3CC3)no2)cn1 (stereo not shown) [Example 199, 5-(5-{1-Cyclopropyl-1-[5-(1-methyl-1H-pyrazol-4-yl)-isoxazol-3-yl]-ethyl}-pyridin-2-yl)-pyrimidin-2-ylamine]
140 | 7.4 | Cn1cc(-c2coc(C(C)(c3ccc(-c4cnc(N)nc4)cc3)C3CC3)n2)cn1 (stereo not shown) [Example 171, 5-(4-{1-cyclopropyl-1-[4-(1-methyl-1H-pyrazol-4-yl)-1,3-oxazol-2-yl]ethyl}phenyl)pyrimidin-2-amine]
120 | 10 | CN(C)C(=O)Cn1cc(-c2cnc(C(C)(c3ccc(-c4cnc(N)nc4)cc3)C3CC3)s2)cn1 (stereo not shown) [Example 170, 2-[4-[2-[1-[4-(2-aminopyrimidin-5-yl)phenyl]-1-cyclopropyl-ethyl]thiazol-5-yl]pyrazol-1-yl]-N,N-dimethyl-acetamide]
570 | 3.2 | CC(C)C(C)(c1ccc(-c2cnc(N)nc2)cc1)c1nc2ccccc2o1 (stereo not shown) [Example 112, 5-{4-[2-(1,3-benzoxazol-2-yl)-3-methylbutan-2-yl]phenyl}pyrimidin-2-amine]
1900 | 8.6 | CC(C)C(C)(c1ccc(-c2cnc(N)nc2)cc1)c1nc2ccccc2[nH]1 (stereo not shown) [Example 104, 5-{4-[2-(1H-benzimidazol-2-yl)-3-methylbutan-2-yl]phenyl}pyrimidin-2-amine]
